Experimental data taken from ChEMBL document CHEMBL2074101, “Cloning and characterization of a rat H+/peptide cotransporter mediating absorption of beta-lactam antibiotics in the intestine and kidney” (J Pharmacol Exp Ther, 1995).

Columns and labels:
Format in all cases: functional, cell-based
Conditions in all cases: Oocyte
[1] = target: T1, Solute carrier family 15 member 1 (Rattus norvegicus) (UniProt P51574); assay: TP_TRANSPORTER: inhibition of Ceftibuten uptake (Ceftibuten: 1000 uM, Bestatin: 10000 uM) in Xenopus laevis oocytes
T1 sequence (whole entry): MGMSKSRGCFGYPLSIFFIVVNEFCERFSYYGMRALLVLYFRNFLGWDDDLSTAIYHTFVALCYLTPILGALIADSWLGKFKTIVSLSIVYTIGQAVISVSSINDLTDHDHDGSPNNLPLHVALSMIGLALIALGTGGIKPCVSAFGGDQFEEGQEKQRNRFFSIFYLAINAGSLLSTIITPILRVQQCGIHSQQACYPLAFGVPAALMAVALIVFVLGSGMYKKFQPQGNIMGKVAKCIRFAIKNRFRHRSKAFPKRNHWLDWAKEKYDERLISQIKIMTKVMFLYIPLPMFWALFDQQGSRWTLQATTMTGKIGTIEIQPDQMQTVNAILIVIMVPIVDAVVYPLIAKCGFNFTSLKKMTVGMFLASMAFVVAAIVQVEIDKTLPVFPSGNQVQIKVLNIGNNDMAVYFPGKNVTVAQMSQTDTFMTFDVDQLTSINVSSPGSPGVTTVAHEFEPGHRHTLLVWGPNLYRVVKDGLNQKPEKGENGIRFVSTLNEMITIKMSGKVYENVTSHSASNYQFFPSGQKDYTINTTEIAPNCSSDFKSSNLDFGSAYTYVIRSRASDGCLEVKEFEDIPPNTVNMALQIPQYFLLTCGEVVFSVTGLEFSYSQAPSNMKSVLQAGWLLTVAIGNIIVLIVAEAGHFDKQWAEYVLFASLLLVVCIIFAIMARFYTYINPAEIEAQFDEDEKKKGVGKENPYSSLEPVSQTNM

[2] = target: T1, Solute carrier family 15 member 1 (Rattus norvegicus); assay: TP_TRANSPORTER: inhibition of Cephradine uptake (Cephradine: 3000 uM, Bestatin: 10000 uM) in Xenopus laevis oocytes
[3] = target: T1, Solute carrier family 15 member 1 (Rattus norvegicus); assay: TP_TRANSPORTER: inhibition of Cephradine uptake (Cephradine: 3000 uM, Gly-Leu: 10000 uM) in Xenopus laevis oocytes
[4] = target: T1, Solute carrier family 15 member 1 (Rattus norvegicus); assay: TP_TRANSPORTER: inhibition of Ceftibuten uptake (Ceftibuten: 1000 uM, Gly-Leu: 10000 uM) in Xenopus laevis oocytes
[5] = target: T1, Solute carrier family 15 member 1 (Rattus norvegicus); assay: TP_TRANSPORTER: inhibition of Ceftibuten uptake (Ceftibuten: 1000 uM, Cephradine: 10000 uM) in Xenopus laevis oocytes
[6] = target: T1, Solute carrier family 15 member 1 (Rattus norvegicus); assay: TP_TRANSPORTER: inhibition of Cephradine uptake (Cephradine: 3000 uM, Carnosine: 10000 uM) in Xenopus laevis oocytes
[7] = target: T1, Solute carrier family 15 member 1 (Rattus norvegicus); assay: TP_TRANSPORTER: inhibition of Ceftibuten uptake (Ceftibuten: 1000 uM, Carnosine: 10000 uM) in Xenopus laevis oocytes
[8] = target: T1, Solute carrier family 15 member 1 (Rattus norvegicus); assay: TP_TRANSPORTER: inhibition of Cephradine uptake (Cephradine: 3000 uM, Ceftibuten: 10000 uM) in Xenopus laevis oocytes
[9] = substrate: CC1=C(C(=O)O)N2C(=O)[C@@H](NC(=O)[C@H](N)C3=CCC=CC3)[C@H]2SC1; assay: (§1) TP_TRANSPORTER: uptake in Xenopus laevis oocytes
[10] = substrate: Nc1nc(/C(=C/CC(=O)O)C(=O)N[C@@H]2C(=O)N3C(C(=O)O)=CCS[C@H]23)cs1; assay: as §1

For `CC(C)C[C@H](NC(=O)[C@@H](O)[C@H](N)Cc1ccccc1)C(=O)O`, the Activity [1] was “inhibitor [+]” and the Activity [2] was “inhibitor [+]”.

For `CC(C)C[C@H](NC(=O)CN)C(=O)O`, the Activity [3] was “inhibitor [+]” and the Activity [4] was “inhibitor [+]”.

`CC1=C(C(=O)O)N2C(=O)[C@@H](NC(=O)[C@H](N)C3=CCC=CC3)[C@H]2SC1` was tested, and the Activity [5] was “is not an inhibitor [-]”.

In the case of `NCCC(=O)N[C@@H](Cc1c[nH]cn1)C(=O)O`, the Activity [6] is reported as “inhibitor [+]” and the Activity [7] is reported as “inhibitor [+]”.

`Nc1nc(/C(=C/CC(=O)O)C(=O)N[C@@H]2C(=O)N3C(C(=O)O)=CCS[C@H]23)cs1` was tested, and the Activity [8] was “inhibitor [+]”.

B1: Solute carrier family 15 member 1 (Rattus norvegicus), P51574 (protein)
chain: MGMSKSRGCFGYPLSIFFIVVNEFCERFSYYGMRALLVLYFRNFLGWDDDLSTAIYHTFVALCYLTPILGALIADSWLGKFKTIVSLSIVYTIGQAVISVSSINDLTDHDHDGSPNNLPLHVALSMIGLALIALGTGGIKPCVSAFGGDQFEEGQEKQRNRFFSIFYLAINAGSLLSTIITPILRVQQCGIHSQQACYPLAFGVPAALMAVALIVFVLGSGMYKKFQPQGNIMGKVAKCIRFAIKNRFRHRSKAFPKRNHWLDWAKEKYDERLISQIKIMTKVMFLYIPLPMFWALFDQQGSRWTLQATTMTGKIGTIEIQPDQMQTVNAILIVIMVPIVDAVVYPLIAKCGFNFTSLKKMTVGMFLASMAFVVAAIVQVEIDKTLPVFPSGNQVQIKVLNIGNNDMAVYFPGKNVTVAQMSQTDTFMTFDVDQLTSINVSSPGSPGVTTVAHEFEPGHRHTLLVWGPNLYRVVKDGLNQKPEKGENGIRFVSTLNEMITIKMSGKVYENVTSHSASNYQFFPSGQKDYTINTTEIAPNCSSDFKSSNLDFGSAYTYVIRSRASDGCLEVKEFEDIPPNTVNMALQIPQYFLLTCGEVVFSVTGLEFSYSQAPSNMKSVLQAGWLLTVAIGNIIVLIVAEAGHFDKQWAEYVLFASLLLVVCIIFAIMARFYTYINPAEIEAQFDEDEKKKGVGKENPYSSLEPVSQTNM
B1 gave a Km [9] of 12.4 mM and a Km [10] of 0.9 mM.
